Test results published in patent US4421767A, “Compounds and methods for treating depression” (priority 1982, dated 1983).
Where two headings read alike, the source gives them in different places.

Columns and labels:
[1] = system: brain noradrenaline and 5-HT concentrations; assay: Brain amine concentration, AFHBA with or without carbidopa pretreatment in rats (Table II); type: in vivo, rat; conditions: for Brain Amine Concentration, 5-HT / Brain Amine Concentration, Noradrenaline: 5 days
Protocol: (§1) (B) Rats were gavaged with saline or carbidopa given at dosage of 10 or 100 mg/kg. Thirty minutes later, the rats were gavaged with saline or AFHBA given at a dosage of 62.5 μg/kg. This treatment was repeated daily for 5 days. On the 6th day, the rats were anaesthetized and heart rate and blood pressure responses to tyramine (0.3-50 mg/kg, i.d.) were determined. Additionally, monoamines and MAO activity were determined in various tissues, including brain.

non-neuronal MAO [2] = assay: Ex vivo MAO activity after i.p. injection in rats, non-neuronal MAO; design: species or system rat
Protocol: (§2) Rats were injected with AFHBA (0.5 mg/kg, i.p.) alone or with AFHBA (0.5 mg/kg, i.p.) in combination with MFMD (2.0 mg/kg, i.p.) administered 30 minutes before AFHBA. Animals were killed 18 hours later and MAO activity (5-HT and phenethylamine as substrates) was determined in brain, heart, and liver. In the brain, AFHBA administered alone inhibited neuronal MAO by 72% and non-neuronal MAO by 37%.
(§3) III. Rats were injected with AFMBA (100 mg/kg, i.p.) and were killed 18 hours later. MAO activity was determined in the brain, heart, and liver using 5-HT and PEA.

MAO [3] = assay: In vitro MAO inhibition; type: biochemical
non-neuronal MAO [4] = assay: Ex vivo brain MAO activity after oral gavage in rats, non-neuronal MAO; design: species or system rat; conditions: 18 hours
Protocol: (§4) MAO activity was determined in the brain using 5-HT and phenethylamine (PEA) as substrates.

[5] = system: dopamine, DOPAC, 5-HT, and 5-HIAA concentrations in the brain; assay: In vivo brain dopamine, DOPAC, 5-HT and 5-HIAA concentrations after oral dosing in rats; design: species or system rat; conditions: 18 hours
Protocol: In a separate experiment, rats were given AFHBA orally at various doses. The rats were killed 18 hours later and dopamine, DOPAC, 5-HT, and 5-HIAA concentrations were determined in the brain.

[6] = system: heart rate and blood pressure responses to tyramine; type: in vivo, rat; conditions: for Tyramine Potentiation: 5 days, tyramine i.d.; for Tyramine Potentiation over and above that of carbidopa: figure in brackets
Protocol: as §1

neuronal MAO [7] = assay: Ex vivo MAO activity after i.p. injection in rats, neuronal MAO; design: species or system rat
Protocol: as §2, §3

[8] = system: partially purified hog kidney AADC; assay: In vitro decarboxylation by partially purified hog kidney AADC (HPLC); type: in vitro ADME; conditions: with 10 μM MFMD (AADC inhibitor)
Protocol: (§5) AFHBA was incubated with partially purified hog kidney AADC at 37° for various times up to 2 hours.

[9] = as above; type: in vitro ADME; conditions: pig; hog kidney AADC, 37°, 2 hours, DL-mixture, HPLC; read-out: decarboxylation to the corresponding allylamine
Protocol: as §5

[10] = system: dopamine, DOPAC, 5-HT, and 5-HIAA concentrations in the brain; assay: In vivo brain dopamine, DOPAC, 5-HT and 5-HIAA concentrations after i.p. injection in rats; design: species or system rat
Protocol: Rats were injected with AFHBA (0.5 mg/kg, i.p.) alone or with AFHBA (0.5 mg/kg, i.p.) in combination with MFMD (2 mg/kg, i.p.) or carbidopa (50 mg/kg, i.p.) given 30 minutes before the AFHBA. The rats were killed 18 hours later, and dopamine, DOPAC, 5-HT, and 5-HIAA concentrations were determined in the brain.

MAO [11] = assay: Ex vivo MAO activity in rats, protection by extracerebral AADC inhibitor; design: species or system rat; conditions: AFHBA 0.5 mg/kg i.p. + MFMD 2.0 mg/kg i.p. 30 min before, liver
Protocol: as §2, §4

[12] = system: brain noradrenaline and 5-HT concentrations; assay: Brain amine concentration after 5 days oral MAO inhibitor in rats (Table I); type: in vivo, rat; conditions: for Brain Amine Concentration, Noradrenaline / Brain Amine Concentration, 5-HT: 5 days
Protocol: On the 6th day, rats were anaesthetized and heart rate and blood pressure responses to tyramine (0.3-50 mg/kg) administered intraduodenally (i.d.) were determined. Additionally, monoamines and MAO activity were determined in various tissues including brain.

neuronal MAO [13] = assay: Ex vivo brain MAO activity after oral gavage in rats, neuronal MAO; design: species or system rat; conditions: 18 hours
Protocol: as §4

[14] = AFHBA 62.5 μg/kg + carbidopa 10 mg/kg
[15] = carbidopa 10000 μg/kg + AFHBA 62.5 μg/kg daily p.o.
[16] = carbidopa 100000 μg/kg + AFHBA 62.5 μg/kg daily p.o.
[17] = saline + AFHBA 62.5 μg/kg daily p.o.
[18] = AFHBA 0.5 mg/kg i.p. + MFMD 2.0 mg/kg i.p. 30 min before, brain
[19] = AFHBA 0.5 mg/kg i.p. + MFMD 2.0 mg/kg i.p. 30 min before, heart
[20] = AFHBA alone 0.5 mg/kg i.p., 18 hours, brain
[21] = AFHBA alone 0.5 mg/kg i.p., 18 hours, heart
[22] = AFHBA alone 0.5 mg/kg i.p., 18 hours, liver
[23] = AFHBA 0.5 mg/kg i.p. + MFMD 2 mg/kg i.p. 30 min before
[24] = AFHBA 0.5 mg/kg i.p. + carbidopa 50 mg/kg i.p. 30 min before
[25] = AFHBA alone 0.5 mg/kg i.p., 18 hours

NC(C(=O)O)C(=CF)c1cccc(O)c1 (racemic) [AFHBA, 2-Amino-4-fluoro-3-(3'-hydroxyphenyl)-3-butenoic acid]
effect on brain monoamines, combination versus single agents [1, 14]: at least equivalent to 250 μg/kg of AFHBA given alone or to 5000 μg/kg of clorgyline
Brain Amine Concentration, 5-HT [1, 15]: 894 ± 25 ng/g
Brain Amine Concentration, Noradrenaline [1, 15]: 694 ± 24 ng/g
Brain Amine Concentration, 5-HT [1, 16]: 815 ± 35 ng/g
Brain Amine Concentration, Noradrenaline [1, 16]: 327 ± 23 ng/g
Brain Amine Concentration, 5-HT [1, 17]: 531 ± 32 ng/g
Brain Amine Concentration, Noradrenaline [1, 17]: 391 ± 12 ng/g
inhibition of non-neuronal MAO, brain, MFMD pretreatment (non-neuronal MAO [2]; [18]): 28%
inhibition of non-neuronal MAO, heart, MFMD pretreatment (non-neuronal MAO [2]; [19]): 4%
inhibition of non-neuronal MAO, brain (non-neuronal MAO [2]; [20]): 37%
inhibition of non-neuronal MAO, heart (non-neuronal MAO [2]; [21]): 44%
MAO inhibition, liver (non-neuronal) (non-neuronal MAO [2]; [22]): 38%
MAO inhibition in vitro (MAO [3]): inactive or very weak inhibitor
% Inhibition of MAO, Non-neuronal (non-neuronal MAO [4]; 0.5 mg/kg oral): 41%
% Inhibition of MAO, Non-neuronal (non-neuronal MAO [4]; 1.0 mg/kg oral): 64%
% Inhibition of MAO, Non-neuronal (non-neuronal MAO [4]; 2.5 mg/kg oral): 83%
% Change from Control, 5-HIAA ([5]; 0.5 mg/kg oral): -11%
% Change from Control, 5-HT ([5]; 0.5 mg/kg oral): +26%
% Change from Control, DOPAC ([5]; 0.5 mg/kg oral): -55%
% Change from Control, 5-HIAA ([5]; 1.0 mg/kg oral): -23%
% Change from Control, 5-HT ([5]; 1.0 mg/kg oral): +74%
% Change from Control, DOPAC ([5]; 1.0 mg/kg oral): -72%
% Change from Control, Dopamine ([5]; 1.0 mg/kg oral): +17%
% Change from Control, 5-HIAA ([5]; 2.5 mg/kg oral): -41%
% Change from Control, 5-HT ([5]; 2.5 mg/kg oral): +140%
% Change from Control, DOPAC ([5]; 2.5 mg/kg oral): -79%
% Change from Control, Dopamine ([5]; 2.5 mg/kg oral): +28%
potentiation of the tyramine response, combination versus AFHBA alone [6, 14]: the potentiation did not exceed that of AFHBA given alone
Tyramine Potentiation [6, 15]: 3.1
Tyramine Potentiation over and above that of carbidopa ([6]; carbidopa 10000 μg/kg + AFHBA 62.5 μg/kg): 2.8
Tyramine Potentiation [6, 16]: 5.0
Tyramine Potentiation over and above that of carbidopa ([6]; carbidopa 100000 μg/kg + AFHBA 62.5 μg/kg): 2.2
Tyramine Potentiation [6, 17]: 4.0
inhibition of neuronal MAO, brain, MFMD pretreatment (neuronal MAO [7]; [18]): 68%
inhibition of neuronal MAO, heart, MFMD pretreatment (neuronal MAO [7]; [19]): 18%
inhibition of neuronal MAO, brain (neuronal MAO [7]; [20]): 72%
inhibition of neuronal MAO, heart (neuronal MAO [7]; [21]): 52%
MAO inhibition, liver (neuronal) (neuronal MAO [7]; [22]): 29%
decarboxylation in the presence of MFMD [8]: no decarboxylation was observed
metabolised at 2 h [9]: 50%
% Change from Control, 5-HIAA [10, 23]: -48%
% Change from Control, 5-HT [10, 23]: +92%
% Change from Control, DOPAC [10, 23]: -92%
% Change from Control, Dopamine [10, 23]: +50%
% Change from Control, 5-HIAA [10, 24]: -37%
% Change from Control, 5-HT [10, 24]: +92%
% Change from Control, DOPAC [10, 24]: -89%
% Change from Control, Dopamine [10, 24]: +54%
% Change from Control, 5-HIAA [10, 25]: -34%
% Change from Control, 5-HT [10, 25]: +30%
% Change from Control, DOPAC [10, 25]: -76%
% Change from Control, Dopamine [10, 25]: +25%
MAO inhibition, liver, MFMD pretreatment (MAO [11]): totally blocked MAO inhibition
Brain Amine Concentration, Noradrenaline ([12]; AFHBA 15.6 μg/kg daily p.o., saline 318 ± 12): 347 ± 9 ng/g
Brain Amine Concentration, 5-HT ([12]; AFHBA 15.6 μg/kg daily p.o., saline 507 ± 18): 530 ± 27 ng/g
Brain Amine Concentration, 5-HT ([12]; AFHBA 62.5 μg/kg daily p.o.): 531 ± 32 ng/g
Brain Amine Concentration, Noradrenaline ([12]; AFHBA 62.5 μg/kg daily p.o.): 391 ± 12 ng/g
Brain Amine Concentration, 5-HT ([12]; AFHBA 250 μg/kg daily p.o.): 1082 ± 98 ng/g
Brain Amine Concentration, Noradrenaline ([12]; AFHBA 250 μg/kg daily p.o.): 563 ± 23 ng/g
Brain Amine Concentration, 5-HT ([12]; AFHBA 1000 μg/kg daily p.o.): 1486 ± 67 ng/g
Brain Amine Concentration, Noradrenaline ([12]; AFHBA 1000 μg/kg daily p.o.): 650 ± 29 ng/g
brain noradrenaline and 5-HT concentrations (dose relation) ([12]; subacute treatment): dose-related increases in brain noradrenaline and 5-HT concentrations
% Inhibition of MAO, Neuronal (neuronal MAO [13]; 0.5 mg/kg oral): 63%
% Inhibition of MAO, Neuronal (neuronal MAO [13]; 1.0 mg/kg oral): 71%
% Inhibition of MAO, Neuronal (neuronal MAO [13]; 2.5 mg/kg oral): 95%
